Values quoted from earlier work, collected in US8343544B2, “Oral sustained-release tablet” (Kyorin Pharmaceutical Co., Ltd., priority 2003, dated 2013).

Details: conventional preparation

- absorption after an oral administration: rapidly absorbed
- half-life (oral): relatively short
SMILES: Cc1nccn1CCC(C(N)=O)(c1ccccc1)c1ccccc1 [KRP-197, 4-(2-methyl-1-imidazolyl)-2,2-diphenylbutylamide]
